Source: US4268630A, “Microbiological production of ketones from C3 -C6 alkanes” (priority 1979, dated 1981)

What was measured:
[1] = test system: Methylobacter capsulatus Y (NRRL B-11,201); assay: Oxidation of sec-alcohols to ketones by resting cell suspension; assay type: cell-based
Description: (§1) The pH of the nutrient medium was adjusted to 7.0 by the addition of acid or base and 50 ml. samples of the nutrient medium were charged into a plurality of 300 ml. shaker flasks. The shaker flasks were inoculated with an inoculating loop of cells from an agar plate containing homogeneous colonies of the microorganisms on the plate (the purity of the isolates was confirmed by microscopic examination). The isolates had been maintained on methanol (0.4% V/V) agar plates or on agar plates under an atmosphere of methane and air having a 1:1 V/V gas ratio which had been transferred every two weeks. For growth on methanol, the medium was supplemented with 0.4% methanol. For growth on methane, the gaseous phase of the inoculated flasks was replaced with a gas mixture comprised on methane and air having a ratio of 1:1 on a V/V basis. The inoculated flasks were sealed air-tight and were incubated on a rotary shaker of orbital radius 2.5 cm. at 250 rpm and at 30° C. for two days until turbidity in the medium had developed. The cells were harvested by centrifugation at 10,000×g. at 4° C. for 30 minutes. The cell pellet was washed twice with a 0.05 M phosphate buffer at a pH of 7.0 (containing 0.02 M MgCl2). The washed cells were then suspended in a 0.05 M phosphate buffer at pH 7.0.
(§2) A 0.5 ml. sample of each washed cell suspension (2 mg. cells) was put into 10 ml. vials at 4° C. which were sealed with a rubber cap. The gaseous phase of the vials was removed with vacuum and then was replaced with a gas mixture of the substrate reactant (i.e., alkane or secondary alcohol) and oxygen at a 1:1 V/V ratio. (In the case of a liquid substrate, i.e., secondary alcohol, 10 μl of the substrate was put in the 10 ml. vials). […] Samples of product (1-3 μl) were withdrawn periodically with a microsyringe and the products were analyzed by gas chromatography (ionization flame detector column).
(§3) The procedure in Example 1 was repeated wherein a plurality of the methane-utilizing methylotrophic microorganisms were each grown aerobically in a nutrient medium containing methane as the alcohol dehydrogenase enzyme inducer and as the major carbon and energy source for growth. The cells were harvested and washed as described in Example 1. The resting microbial cells of the induced methane-grown methane-utilizing methylotrophic microorganisms were then contacted with C3 -C6 secondary alcohols in a buffered solution by the procedure of Example 1.
(§4) In this example, the procedure in Example 1 was repeated except that a plurality of methane-utilizing methylotrophic microorganisms were each aerobically grown in a methanol-containing nutrient medium instead of a methane-containing medium. The nutrients in the medium were the same as indicated in Example 1 except that 0.4% V/V methanol was used as the alcohol dehydrogenase inducer and major source of carbon and energy for growth. Following growth, the cells were harvested and washed as described in Example 1. The resting cells of the induced methanol-grown methylotrophic microorganisms were then contacted with secondary alcohols in a buffered solution by the procedure described in Example 1.

[2] = test system: Methylomonas methanica S1 (NRRL B-11,199); assay: as above; assay type: cell-based
Description: as §1, §2, §3, §4

[3] = test system: Methylococcus capsulatus, Texas (ATCC 19069); assay: as above; assay type: cell-based
Description: as §1, §2, §3, §4

[4] = test system: Methylocystis parvus OBBP (NRRL B-11,198); assay: as above; assay type: cell-based
Description: as §1, §2, §3, §4

[5] = test system: secondary alcohol dehydrogenase (SADH); assay: Activity of purified secondary alcohol dehydrogenase (inhibition, substrate specificity, Km); assay type: biochemical, Pseudomonas sp. ATCC 21439; conditions: for relative percent rate of oxidation: 2-butanol = 100%
Description: Secondary alcohol dehydrogenase (SADH) from an obligate methanol utilizer, Pseudomonas sp. ATCC 21439 was purified as follows. […] 0.05 M sodium phosphate buffer, pH 7.0 with 0.5 mM dithiothretol (buffer A) and were disrupted sonically (5×1 min.). The crude extract was separated by centrifugation. The crude extract was heat-treated at 50° C. in a water bath for 10 minutes. The resulting precipitate was removed by centrifugation. To the supernatant solution, 25 ml of protamine sulfate solution (2% solution in 0.1 M Tris base) was added dropwise with continuous stirring. After standing for 30 minutes, the extract was centrifuged. The supernatant solution was fractionated with solid ammonium sulfate. The material precipitating between 30 and 60% saturation was collected and was dialized overnight against buffer A. The The dialized material was applied to a DEAE-cellulose column (3 cm by 35 cm) that had been equilibrated with buffer A. The secondary alcohol dehydrogenase activity was eluted in the void volume. This DEAE-cellulose eluate was concentrated by ammonium sulfate fractionation. Material precipitating between 30 and 50% ammonium sulfate saturation was collected by centrifugation and dialyzed overnight against A. This fraction was further washed and filtered through an Amicon unit with XM 50 membrane. The concentrated fraction (6 ml) inside the Amicon unit was applied to an Affi-Gel Blue column (0.8 cm×18 cm) which had been equilibrated with buffer A for affinity chromatography. The column was washed overnight with buffer A (0.18 ml./min.) and then was eluted with buffer A containing 5 mM NAD. Each 1 ml. fraction was collected.
The purified secondary alcohol dehydrogenase enzyme (SADH) may be used directly for converting C3 -C6 secondary alcohols to the corresponding methyl ketones by the procedures described above; however, a source of NAD^+ must be added to the reaction medium. One can determine the NAD-linked secondary alcohol dehydrogenase activity with a fluorescence spectrophotometer (Perkin Elmer, Model MPF 44A) by following the formation of reduced NAD (Ex 340 nm, Em 460 nm). The assay system (3 ml.) will typically contain: sodium phosphate buffer pH 7.0, 150 μmol; NAD 1.0 μmol; a given amount of enzyme preparation; and 20 μmol secondary alcohol. The reaction is started by the addition of secondary alcohol. One unit of SADH enzyme activity represents the reduction of one nmole NAD per minute.
The effect of metal-chelating agents and thioreagents on the activity of the purified SADH enzyme were studied. […] The possibility of ethanol or n-propanol as an inhibitor was studied.

[6] = test system: Hansenula polymorpha ATCC 26012; assay: Oxidation of sec-alcohols to ketones by cell suspensions of yeasts; assay type: cell-based
[7] = test system: Pseudomonas MS ATCC 25262; assay: Oxidation of sec-alcohols to ketones by resting cell suspension; assay type: cell-based; conditions: methanol-grown, facultative
Description: as §1, §2
(§5) The procedure in Example 1 was repeated except that a plurality of methanol-utilizing methylotrophic microorganisms were each aerobically grown in a methanol-containing nutrient medium instead of a methane-containing medium. The nutrients in the medium were the same as indicated in Example 1 except that 0.4% V/V methanol was used as the alcohol dehydrogenase inducer and as the major carbon and energy source for growth. The cells were harvested and washed as described in Example 1. The resting microbial cells of the induced methanol-grown methanol-utilizing methylotrophic microorganisms were then contacted with C3 -C6 secondary alcohols in a buffered solution by the procedure of Example 1.

[8] = test system: Pseudomonas sp. ATCC 21439; assay: as above; assay type: cell-based; conditions: methanol-grown, obligate
Description: as §1, §2, §5

Row | Compound | Conversion Rates, sec-alcohol to methyl ketone ([1]; cells grown on methanol) | Conversion Rates, sec-alcohol to methyl ketone ([1]; resting cells grown on methane) | Conversion Rates, sec-alcohol to methyl ketone ([2]; cells grown on methanol) | Conversion Rates, sec-alcohol to methyl ketone ([2]; resting cells grown on methane) | Conversion Rates, sec-alcohol to methyl ketone ([3]; cells grown on methanol) | Conversion Rates, sec-alcohol to methyl ketone ([3]; resting cells grown on methane) | Conversion Rates, sec-alcohol to methyl ketone ([4]; cells grown on methanol) | Conversion Rates, sec-alcohol to methyl ketone ([4]; resting cells grown on methane) | substrate specificity of purified SADH (in words) [5] | Conversion Rate, sec-alcohol to ketone ([6]; growth substrate Ethanol) | Conversion Rate, sec-alcohol to ketone ([6]; growth substrate Methanol) | Conversion Rate, sec-alcohol to ketone ([6]; growth substrate Methylamine) | Conversion Rate, sec-alcohol to ketone ([6]; growth substrate Methylformate) | Conversion Rate, sec-alcohol to ketone ([6]; growth substrate Propylamine) | Conversion Rates, sec-alcohol to methyl ketone [7] | Conversion Rates, sec-alcohol to methyl ketone [8] | relative percent rate of oxidation [5]
1 | CCC(C)O (stereo not shown) [2-Butanol, 2-butanol] | 1.5 μmoles/hr/mg protein | 0.84 μmoles/hr/mg protein | 0.40 μmoles/hr/mg protein | 0.39 μmoles/hr/mg protein | 0.70 μmoles/hr/mg protein | 0.60 μmoles/hr/mg protein | 1.0 μmoles/hr/mg protein | 1.1 μmoles/hr/mg protein | highest | 4.8 μmoles/hr/mg of protein | 5.8 μmoles/hr/mg of protein | 4.5 μmoles/hr/mg of protein | 5.2 μmoles/hr/mg of protein | 4.0 μmoles/hr/mg of protein | 3.5 μmoles/hr/mg protein | 4.7 μmoles/hr/mg protein | 
2 | CCCC(C)O (stereo not shown) [2-Pentanol, 2-pentanol] | 0.60 μmoles/hr/mg protein | 0.5 μmoles/hr/mg protein | 0.45 μmoles/hr/mg protein | 0.25 μmoles/hr/mg protein | 3.5 μmoles/hr/mg protein | 2.5 μmoles/hr/mg protein | 0.82 μmoles/hr/mg protein | 0.80 μmoles/hr/mg protein | lower rate | 1.1 μmoles/hr/mg of protein | 1.4 μmoles/hr/mg of protein | 1.2 μmoles/hr/mg of protein | 1.3 μmoles/hr/mg of protein | 0.82 μmoles/hr/mg of protein | 2.1 μmoles/hr/mg protein | 0.05 μmoles/hr/mg protein | 5%
3 | CCCCC(C)O (stereo not shown) [2-Hexanol, 2-hexanol] | 0.12 μmoles/hr/mg protein | 0.1 μmoles/hr/mg protein | 0.04 μmoles/hr/mg protein | 0.01 μmoles/hr/mg protein | 1.3 μmoles/hr/mg protein | 1.0 μmoles/hr/mg protein | 0.05 μmoles/hr/mg protein | 0.065 μmoles/hr/mg protein | lower rate | 0.54 μmoles/hr/mg of protein | 0.72 μmoles/hr/mg of protein | 0.62 μmoles/hr/mg of protein | 0.70 μmoles/hr/mg of protein | 0.48 μmoles/hr/mg of protein | 0.80 μmoles/hr/mg protein | 0.03 μmoles/hr/mg protein | 2%
4 | CC(C)O [2-Propanol, 2-propanol] | 0.52 μmoles/hr/mg protein | 0.15 μmoles/hr/mg protein | 0.35 μmoles/hr/mg protein | 0.40 μmoles/hr/mg protein | 0.75 μmoles/hr/mg protein | 0.08 μmoles/hr/mg protein | 0.25 μmoles/hr/mg protein | 0.32 μmoles/hr/mg protein | highest | 5.0 μmoles/hr/mg of protein | 5.9 μmoles/hr/mg of protein | 5.2 μmoles/hr/mg of protein | 5.6 μmoles/hr/mg of protein | 4.1 μmoles/hr/mg of protein | 0.80 μmoles/hr/mg protein | 7.4 μmoles/hr/mg protein | 85%
